Results published in publication PMC6105845, “Nucleotide Prodrug Containing a Nonproteinogenic Amino Acid To Improve Oral Delivery of a Hepatitis C Virus Treatment” (Antimicrobial Agents and Chemotherapy, 2018).
Values after ≈ are worked out from the molar mass of the structure shown.

Key:
[1] = Metabolic stability in hepatic S9 fraction, human; type: in vitro ADME; conditions: 2 μM
Description: (§1) Blood plasma and S9 stability was studied as described previously ([8]). In brief, the compounds were incubated at 2 μM in hamster, rat, dog, monkey, or human plasma samples for up to 4 h at 37°C. For S9 stability, the compounds were incubated at 2 μM in hamster, rat, dog, monkey, or human intestinal and hepatic S9 fractions for up to 90 min at 37°C in the presence of NADPH and uridine 5′-diphosphoglucuronic acid trisodium salt (UDPGA) (Sigma-Adrich). The samples were analyzed by liquid chromatography coupled to triple-quadrupole mass spectrometry (LC-MS/MS).
(§2) The data (analyte-to-internal standard peak area ratio) were plotted on a semilog scale and fitted using an exponential fit. The half-life (t1/2) was determined assuming first-order kinetics.

[2] = Metabolic stability in intestinal S9 fraction, rat; type: in vitro ADME
Description: as §1, §2

[3] = Metabolic stability in intestinal S9 fraction, dog; type: in vitro ADME
Description: as §1, §2

[4] = Metabolic stability in hepatic S9 fraction, hamster; type: in vitro ADME; conditions: 2 μM
Description: as §1, §2

[5] = Metabolic stability in hepatic S9 fraction, rat; type: in vitro ADME; conditions: 2 μM
Description: as §1, §2

[6] = Metabolic stability in hepatic S9 fraction, dog; type: in vitro ADME; conditions: 2 μM
Description: as §1, §2

Kinetic solubility = type: physicochemical; conditions: 37 °C, kinetic from dmso stock
Description: (§3) The samples were incubated at 37°C for 1 h, followed by centrifugation at 2,800 relative centrifugal force (RCF) for 30 min at room temperature. Thermodynamic solubility was determined with the crystalline-free base of GS-6620 or amorphous GS2 using the shaking flask method. The concentrations of the compounds in supernatants were determined by HPLC.

[7] = Thermodynamic solubility (shaking flask, simulated intestinal fluid); type: physicochemical; conditions: for solubility thermodynamic: fessif, thermodynamic from solid, crystalline free base GS-6620, amorphous GS2
Description: as §3

HCV GT1a replicon = experiment: HCV GT1a replicon, stably transfected Huh-Lunet cells; type: cell-based, hepatitis C virus; conditions: for EC50: Hepatitis C virus, 72 h, stably transfected Huh-Lunet cells, 3 days
Description: (§4) Primary hepatocytes from humans, hamsters, dogs, and monkeys were purchased from BioreclamationIVT in 12-well plates seeded at confluence (0.88 × 10^6 cells/well). Huh-Lunet cells were obtained from ReBlikon GmbH (Mainz, Germany) ([19]). Huh-1C was derived from a GT1a replicon clone in which HCV replication was cured. All Huh-Lunet- and Huh-1C-based replicon cell lines were cultured in Dulbecco's modified Eagles' medium (DMEM) with GlutaMAX (Invitrogen, Carlsbad, CA) supplemented with 10% fetal bovine serum (FBS; HyClone, Logan, UT) and 100 U/ml penicillin (Invitrogen). Replicon cell lines containing genotype 1a (H77) and 2a (JFH1) were created as previously reported ([20][–][22]). Caco-2 cells were maintained in DMEM with sodium pyruvate, GlutaMAX supplemented with 1% penicillin-streptomycin, 1% nonessential amino acids, and 10% FBS in an incubator set at 37°C, 90% humidity, and 5% CO2.
(§5) GT1a, GT1b, and GT2a are authentic subgenomic replicons of the indicated strain. Creation of these HCV replicons was reported previously ([7]).
(§6) The EC50s, defined as the concentration at which there was a measured 50% decrease in HCV replicon level, were determined in replicon assay as previously described ([24]). Briefly, replicon cells were seeded into 96-well plates. Compounds were serially diluted in DMSO at 200× final concentrations and then added to the assay plate. Luciferase expression was quantified after 3 days of incubation using a commercial luciferase assay (Promega, Madison, WI). Data were analyzed using GraphPad Prism 6.0 (La Jolla, CA).
(§7) X represents log of compound concentration and Y represents replicon replication as the percentage of DMSO control. EC50s were calculated as an average from at least three independent experiments.

[8] = Metabolic stability in hepatic S9 fraction, monkey; type: in vitro ADME; conditions: monkey (cynomolgus); 2 μM
Description: as §1, §2

in vitro = in vitro ADME; conditions: 37°C, read-out: Plasma stability, half-life
Description: as §1, §2

HCV GT2a replicon [9] = experiment: HCV GT2a replicon, transiently transfected Huh-1C cells; type: cell-based, hepatitis C virus; conditions: for EC50: Hepatitis C virus, GT2A, 72 h
Description: as §5
RNA was transcribed in vitro using a MEGAscript […] kit (Ambion, Austin, TX) and transfected into Huh-Lunet and −1C cells using published methods ([21], [22]).
as §6, §7

[10] = Metabolic stability in intestinal S9 fraction, human; type: in vitro ADME; conditions: for half-life at 2 μM: intestinal S9 fraction
Description: as §1, §2

HCV GT1b replicon = experiment: HCV GT1b replicon, stably transfected Huh-Lunet cells; type: cell-based, hepatitis C virus; conditions: for EC50: Hepatitis C virus, 72 h, stably transfected Huh-Lunet cells, 3 days
Description: as §4, §5, §6, §7

HCV GT2a replicon [11] = experiment: HCV GT2a replicon, stably transfected Huh-Lunet cells; type: cell-based, hepatitis C virus; conditions: for EC50: Hepatitis C virus, 72 h, stably transfected Huh-Lunet cells, 3 days
Description: as §4, §5, §6, §7

CES2 = biological target: T1, CES2 (Homo sapiens, UniProt O00748); experiment: Ester cleavage by CES2; type: biochemical; conditions: GS-6620-containing diastereomeric mixture was used
T1 construct: purchased R&D Systems (Minneapolis, MN)
T1 sequence (O00748 27-559): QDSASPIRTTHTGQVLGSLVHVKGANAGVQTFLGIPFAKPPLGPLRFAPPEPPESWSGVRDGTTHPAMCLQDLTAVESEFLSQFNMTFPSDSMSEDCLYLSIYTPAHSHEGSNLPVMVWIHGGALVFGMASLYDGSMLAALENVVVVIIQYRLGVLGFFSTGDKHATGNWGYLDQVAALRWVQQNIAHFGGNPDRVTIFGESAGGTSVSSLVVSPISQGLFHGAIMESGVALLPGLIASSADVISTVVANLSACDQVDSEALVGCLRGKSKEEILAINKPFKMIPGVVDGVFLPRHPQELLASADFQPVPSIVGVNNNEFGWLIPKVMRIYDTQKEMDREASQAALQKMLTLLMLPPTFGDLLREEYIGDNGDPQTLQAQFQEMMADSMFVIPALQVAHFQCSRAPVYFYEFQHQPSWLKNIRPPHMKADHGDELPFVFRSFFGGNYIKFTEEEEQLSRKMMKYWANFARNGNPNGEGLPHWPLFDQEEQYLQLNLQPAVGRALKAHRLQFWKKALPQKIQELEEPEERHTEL
Description: Biochemical assays studying prodrug cleavage have been described previously ([8]). In brief, the cleavages of GS2 by CATA, CES1, CES2, and HINT1 were assessed in vitro. The reaction substrates and products were monitored over time by high-performance liquid chromatography (HPLC).

[12] = 0.1 N HCl, simulated gastric fluid, HCl (pH 1.0)
[13] = fed-state simulated intestinal fluid

Row | SMILES | Metabolic stability in hepatic S9 fraction, predicted hepatic extraction [1] [%] | half-life at 2 μM [2] [h] | half-life at 2 μM [3] [h] | Metabolic stability in hepatic S9 fraction, predicted hepatic extraction [4] [%] | Metabolic stability in hepatic S9 fraction, predicted hepatic extraction [5] [%] | Metabolic stability in hepatic S9 fraction, predicted hepatic extraction [6] [%] | solubility kinetic at 1 h (Kinetic solubility; [12]) [µM] | solubility kinetic at 1 h (Kinetic solubility; aqueous buffer, PBS (pH 7.0)) [µM] | solubility thermodynamic [7, 13] [µM] | EC50 (HCV GT1a replicon) [nM] | Metabolic stability in hepatic S9 fraction, predicted hepatic extraction [8] [%] | half-life at 2 μM (in vitro; dog plasma) [h] | half-life at 2 μM (in vitro; hamster plasma) [h] | half-life at 2 μM (in vitro; human plasma) [h] | half-life at 2 μM (in vitro; monkey (cynomolgus) plasma) [h] | half-life at 2 μM (in vitro; rat plasma) [h] | EC50 (HCV GT2a replicon [9]) [nM] | half-life at 2 μM [10] [h] | EC50 (HCV GT1b replicon) [nM] | EC50 (HCV GT2a replicon [11]; GT2a) [nM] | also measured
1 | CC(C)OC(=O)[C@H](C)N[P@](=O)(OC[C@H]1O[C@@](C#N)(c2ccc3c(N)ncnn23)[C@](C)(O)[C@@H]1OC(=O)C(C)C)Oc1ccccc1 [GS-6620, reference compound] | 93 | 0.147 | 0.55 | 97 | 97 | 73 | 87 (≈ 56.1 µg/mL) | 46 (≈ 29.7 µg/mL) | 7.8 (≈ 5.03 µg/mL) | 110 ± 50 | 95 | 7.17 | 2 | 6.17 | 1.33 | < 0.0333 | 27 ± 10 | 0.283 | 300 ± 140 | 500 ± 160 | difference in activity across the 2a replicons (HCV GT2a replicon [11]; Huh-Lunet vs Huh-1C 2a replicons): ≤ 19 fold; 3′-Ester cleavage, specific activity (CES2): 60.1 pmol/min/µg; Amidate ester cleavage, specific activity (CES2): Stable
2 | CC(C)OC(=O)C(C)(C)N[P@](=O)(OC[C@H]1O[C@@](C#N)(c2ccc3c(N)ncnn23)[C@](C)(O)[C@@H]1O)Oc1ccccc1 [GS2] | 87 | 2.83 | 9.17 | 93 | 86 | 42 | > 100 | > 100 | 430 (≈ 253 µg/mL) | 380 ± 150 | 91 | > 10 | > 10 | > 10 | > 10 | 0.0833 | 61 ± 8 | 9.5 | 2200 | 25000 | difference in solubility between fed and fasted simulated intestinal fluid [7]: less than 30%; thermodynamic solubility higher than GS-6620 [7, 13]: > 30 fold; Fold (GS2/GS-6620) (HCV GT1a replicon; EC50 ratio, Huh-Lunet): 3.5; Fold (GS2/GS-6620) (HCV GT2a replicon [9]; EC50 ratio, GT2a, Huh-1C): 2.3; stability in human intestinal S9 greater than GS-6620 [10]: 35 fold; Fold (GS2/GS-6620) (HCV GT1b replicon; EC50 ratio, Huh-Lunet): 7.2; Fold (GS2/GS-6620) (HCV GT2a replicon [11]; EC50 ratio, GT2a, Huh-Lunet): 50; Amidate ester cleavage, specific activity (CES2): Stable
